{"source": "paper PMC6349922", "assay": "RCM stapling (C=C formation) of two bridgehead alkenyl ether chains of 7-azabicyclo[2.2.1]heptane amide dimers; Grubbs I, 5-7 mol% (about 2.5-3 mol% for 36), added dropwise over 10-15 min, reflux under Ar", "details": "CH2Cl2, 1.0 mM, 40.0 °C"}
{"compound": "CC(C)(C)OC(=O)N1[C@H]2CC[C@@]13COCCCCC=CCCCCOCC14CCC(CC1)N4C(=O)[C@H]2C3", "note": "[3 -> 8 (C10)]", "values": [{"measurement": "ring closure, isolated yield", "setting": "from C=CCCCCOCC12CCC(CC1)N2C(=O)[C@H]1C[C@@]2(COCCCCC=C)CC[C@@H]1N2C(=O)OC(C)(C)C, 20-membered ring, 3.0 h", "value": 94, "unit": "%"}]}
{"compound": "CC(C)(C)OC(=O)N1[C@H]2CC[C@@]13COCCCC=CCCCOCC14CCC(CC1)N4C(=O)[C@H]2C3", "note": "[1 -> 6 (C8)]", "values": [{"measurement": "ring closure, isolated yield", "setting": "from C=CCCCOCC12CCC(CC1)N2C(=O)[C@H]1C[C@@]2(COCCCC=C)CC[C@@H]1N2C(=O)OC(C)(C)C, 18-membered ring, 8.0 h", "value": 73, "unit": "%"}]}
{"compound": "CC(C)(C)OC(=O)N1[C@H]2CC[C@@]13COCCCCC=CCCCOCC14CCC(CC1)N4C(=O)[C@H]2C3", "note": "[2 -> 7 (C9)]", "values": [{"measurement": "ring closure, isolated yield", "setting": "from C=CCCCCOC[C@@]12CC[C@@H]([C@@H](C(=O)N3C4CCC3(COCCCC=C)CC4)C1)N2C(=O)OC(C)(C)C, 19-membered ring, 4.0 h", "value": 80, "unit": "%"}]}
{"compound": "CC(C)(C)OC(=O)N1[C@H]2CC[C@@]13COCCCCCC=CCCCCCOCC14CCC(CC1)N4C(=O)[C@H]2C3", "note": "[5 -> 10 (C12)]", "values": [{"measurement": "ring closure, isolated yield", "setting": "from C=CCCCCCOCC12CCC(CC1)N2C(=O)[C@H]1C[C@@]2(COCCCCCC=C)CC[C@@H]1N2C(=O)OC(C)(C)C, 22-membered ring, 16.0 h", "value": 64, "unit": "%"}]}
{"compound": "Cc1ccc(S(=O)(=O)N2[C@H]3CC[C@@]24COCCCCC=CCCCCOCC25CCC(CC2)N5C(=O)[C@H]3C4)cc1", "note": "[36 -> Ts-8 (C10, N-Ts)]", "values": [{"measurement": "ring closure, isolated yield", "setting": "from C=CCCCCOCC12CCC(CC1)N2C(=O)[C@H]1C[C@@]2(COCCCCC=C)CC[C@@H]1N2S(=O)(=O)c1ccc(C)cc1, 20-membered ring, 1.0 h", "value": 91, "unit": "%"}]}
{"compound": "CC(C)(C)OC(=O)N1[C@H]2CC[C@@]13COCCCCCC=CCCCCOCC14CCC(CC1)N4C(=O)[C@H]2C3", "note": "[4 -> 9 (C11)]", "values": [{"measurement": "ring closure, isolated yield", "setting": "from C=CCCCCCOC[C@@]12CC[C@@H]([C@@H](C(=O)N3C4CCC3(COCCCCC=C)CC4)C1)N2C(=O)OC(C)(C)C, 21-membered ring, 2.0 h", "value": 87, "unit": "%"}]}
